In article PMC6368403, “Identification of a bilirubin receptor that may mediate a component of cholestatic itch” (eLife, 2019):
Where “and” joins values, the source holds several entries; their conditions need not be identical. Equal entries are not always repeated.

Assays:
MRGPRX4 [1] = target: T1, MRGPRX4 (Homo sapiens, UniProt Q96LA9); experiment: Ca2+ imaging and concentration-Ca2+ response (EC50) in HEK293 cells expressing MRGPRX4; type: cell-based; conditions: for Ca2+ response (concentration-response curve): MRGPRX4, triplicate wells (Fig 2I)
T1 construct: expressed in transfected cells
T1 sequence (Q96LA9 whole entry): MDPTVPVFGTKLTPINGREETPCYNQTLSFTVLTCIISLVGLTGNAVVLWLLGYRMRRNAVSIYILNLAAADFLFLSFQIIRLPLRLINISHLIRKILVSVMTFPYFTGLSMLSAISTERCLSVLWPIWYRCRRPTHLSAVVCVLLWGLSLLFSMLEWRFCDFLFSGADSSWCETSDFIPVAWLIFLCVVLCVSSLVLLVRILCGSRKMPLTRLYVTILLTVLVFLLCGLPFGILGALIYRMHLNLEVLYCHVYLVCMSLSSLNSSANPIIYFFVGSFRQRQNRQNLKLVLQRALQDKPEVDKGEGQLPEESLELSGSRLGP
Experimental: All cultured cells were maintained in DMEM supplemented with 10% FBS and 1% Penicillin/Streptomycin at 37°C, 5% CO2. All data included were generated from cells tested for mycoplasma and found to be negative. Cells were imaged in calcium imaging buffer (CIB; 10 mM HEPES, 1.2 mM NaHCO3, 130 mM NaCl, 3 mM KCl, 2.5 mM CaCl2, 0.6 mM MgCl2, 20 mM glucose, and 20 mM sucrose at pH 7.4 and 290–300 mOsm). To monitor changes in intracellular [Ca^2+] ([Ca^2+]i), cells were loaded with either Fura 2-AM (HEK293 cells) or Fluo 4-AM (DRG neurons and mast cells) for 30 min in the dark at 37°C in CIB just prior to imaging. With Fura 2-AM, emission at 510 nm was monitored from excitation at both 340 nm and 380 nm. With Fluo 4-AM, emission at 520 nm was monitored from excitation at 488 nm. Cells were identified as responding if the intracellular [Ca^2+] rose by either 50% compared to baseline or 50% compared to the [Ca^2+]i change assayed during addition of 50 mM KCl (neurons only). Damaged, detached, high-baseline, and motion-activated cells were excluded from analysis.
In initial screens, HEK293 cells stably expressing the murine G-protein alpha-subunit Gα15, a unique Gα protein that non-selectively couples a large variety of GPCRs to phospholipase C ^30, were plated on poly-D-lysine-coated coverslips and transiently transfected with constructs encoding the MRGRPR of interest. 12–24 hr later, cells were loaded with the Fura 2-AM. Unless otherwise specified, compounds were perfused into the imaging chamber for approximately thirty seconds after a baseline period was established. Response was then monitored at 5 s intervals for an additional 60 s.
HEK293 cells stably expressing either MRGPRA1, MRGPRX4, and MRGRPC11 were seeded in poly-D-lysine-coated 96-well plates at 10,000 cells/well. Cells were loaded with Fura 2–AM, washed twice, and maintained in CIB. Haem metabolites were freshly dissolved in DMSO in dim light and then diluted into a buffer comprised of 20 mM Tris and 150 mM NaCl at pH 8.8. Potential changes in pH were evaluated prior to each experiment. EC50 values were determined from dose-responses performed in triplicate, repeated 2–4 times. To determine potential antagonism by QWF against bilirubin, cells were treated with varying doses of QWF for 1 min in CIB prior to application of agonist.
HEK293 stable cell lines expressing GFP-tagged MRGPRA3, MRGPRC11, MRGPRD, MRGPRX1, and MRGPRX2 were generated in previously described reports ([Liu et al., 2009]; [Liu et al., 2012]; [McNeil et al., 2015]). Briefly, plasmids containing the receptor of interest were transfected into HEK cells using Lipofectamine 3000. After 3 days, cells were then selected using 0.5 mg/mL G418. After 3 weeks, monoclonal colonies were established and each the highest expressing clones were identified. For this study, Mrgpra1 and MRGPRX4 were inserted into pEGFP-N1 and transfected into HEK293 cells. MRGPR-positive cells were selected using 0.5 mg/mL G418 for three weeks, after which GFP-positive cells were sorted by FACS and monoclonally expanded. Two lines expressing similar levels of MRGPRA1 and MRGPRX4, as measured by GFP fluorescence, were selected for study.

MRGPRA1 = target: T2, MRGPRA1 (Mus musculus, UniProt Q91WW5); experiment: Microscale thermophoresis binding to MRGPRA1; design: Transformed binding isotherm (mean of three experiments): unit not given here; conditions: MRGPRA1 (Fig 2E)
T2 construct: expressed in transfected cells
T2 sequence (Q91WW5 1-304): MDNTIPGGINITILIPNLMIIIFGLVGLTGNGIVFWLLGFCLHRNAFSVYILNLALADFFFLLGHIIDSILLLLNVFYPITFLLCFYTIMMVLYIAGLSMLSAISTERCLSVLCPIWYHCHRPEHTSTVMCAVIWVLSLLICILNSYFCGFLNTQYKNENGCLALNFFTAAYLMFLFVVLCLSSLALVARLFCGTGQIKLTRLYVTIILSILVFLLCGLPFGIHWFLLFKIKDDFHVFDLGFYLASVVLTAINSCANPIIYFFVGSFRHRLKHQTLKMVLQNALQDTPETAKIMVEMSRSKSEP
Experimental: (§1) Binding isotherms for MRGPRA1, MRGPRX4, and MRGRPC11 towards various ligands were determined by microscale thermophoresis with the NanoTemper monolith NT.115 instrument ([Duhr and Braun, 2006]). Ligands were pre-incubated with 10 µM of the GFP-tagged receptor of interest for 5 min at room temperature in binding buffer (20 mM Tris and 150 mM NaCl at pH 8.8). Receptors were crudely purified as a membrane fraction from cells stably expressing the receptor ([Vasavda et al., 2017]). Haem metabolites were freshly dissolved in 0.1 M NaOH in dim light and then diluted into assay buffer. Lyophilized BAM8-22 was dissolved in binding buffer. The pH of each ligand was evaluated prior to incubation with a receptor. Samples were loaded into NT.115 Hydrophobic-Treated Capillaries from NanoTemper. Microscale thermophoretic experiments were executed using 20% LED power and 15% MST power. KDs were calculated using the law of mass action with data from three independent experiments. Binding between bilirubin and receptors was evaluated purely thermophoretically, whereas binding between BAM8-22 and MRGPRC11 was evaluated by T-Jump. Samples with dramatic deviations in initial fluorescence were excluded.

MRGPRX4 [2] = target: T1, MRGPRX4; experiment: Microscale thermophoresis binding to MRGPRX4; design: microscale thermophoresis response (binding isotherm), mean: unit not given here; conditions: mean of n=3, Fig 2-J
Experimental: as §1

Question: Which “Calcium response / activation of MRGPRX4-expressing cells” value (MRGPRX4 [1]) does the source give for `C=CC1=C(C)/C(=C/c2[nH]c(Cc3[nH]c(/C=C4\NC(=O)C(C)=C4C=C)c(C)c3CCC(=O)O)c(CCC(=O)O)c2C)NC1=O` [bilirubin, bilirubin IXα] here?
Answer: The value was “only MRGPRX4-expressing cells responded”.

Question: And the “Ca2+ response (concentration-response curve)” value (“Ca2+ response” below) (MRGPRX4 [1]; [Ligand] 1.95313e-6 M)?
Answer: The value was 0.6657 and 0.5292 and 0.882.

Question: What about the “Ca2+ response” value (MRGPRX4 [1]; [Ligand] 3.90625e-6 M) of the same compound?
Answer: The value was 0.5596 and 0.9735 and 0.9102.

Question: And the “Ca2+ response” value (MRGPRX4 [1]; [Ligand] 7.8125e-6 M)?
Answer: Its value is 0.7828 and 0.7465 and 0.8173.

Question: What about the “Ca2+ response” value (MRGPRX4 [1]; [Ligand] 1.5625e-5 M) of the same compound?
Answer: Its value is 0.5886 and 0.7131 and 0.5739.

Question: What about the “Ca2+ response” value (MRGPRX4 [1]; [Ligand] 3.125e-5 M) of the same compound?
Answer: The value was 0.9259 and 0.9222 and 0.8162.

Question: What about the “Ca2+ response” value (MRGPRX4 [1]; [Ligand] 6.25e-5 M) of the same compound?
Answer: Its value is 1.178 and 1.234 and 1.122.

Question: And the “Ca2+ response” value (MRGPRX4 [1]; [Ligand] 0.000125 M)?
Answer: The value was 1.451 and 1.464 and 1.382.

Question: What about the “Ca2+ response” value (MRGPRX4 [1]; [Ligand] 0.00025 M) of the same compound?
Answer: The value was 1.643 and 1.595 and 1.524.

Question: And the “Transformed binding isotherm (mean of three experiments)” value (shortened to “Transformed binding isotherm”) (MRGPRA1; [Ligand] 3.05e-8 M)?
Answer: Its value is 6.015.

Question: And the “Transformed binding isotherm” value (MRGPRA1; [Ligand] 6.1e-8 M)?
Answer: Its value is 5.1124.

Question: What about the “Transformed binding isotherm” value (MRGPRA1; [Ligand] 1.221e-7 M) of the same compound?
Answer: Its value is 3.41.

Question: What about the “Transformed binding isotherm” value (MRGPRA1; [Ligand] 2.441e-7 M) of the same compound?
Answer: Its value is 3.271.

Question: What about the “Transformed binding isotherm” value (MRGPRA1; [Ligand] 4.883e-7 M) of the same compound?
Answer: Its value is -3.226.

Question: And the “Transformed binding isotherm” value (MRGPRA1; [Ligand] 9.766e-7 M)?
Answer: The value was -3.391.

Question: What about the “Transformed binding isotherm” value (MRGPRA1; [Ligand] 1.9531e-6 M) of the same compound?
Answer: The value was 7.109.

Question: And the “Transformed binding isotherm” value (MRGPRA1; [Ligand] 7.8125e-6 M)?
Answer: The value was 1.334.

Question: What about the “Transformed binding isotherm” value (MRGPRA1; [Ligand] 1.5625e-5 M) of the same compound?
Answer: The value was 2.3419.

Question: What about the “Transformed binding isotherm” value (MRGPRA1; [Ligand] 3.125e-5 M) of the same compound?
Answer: The value was 16.9295.

Question: And the “Transformed binding isotherm” value (MRGPRA1; [Ligand] 6.25e-5 M)?
Answer: Its value is 43.5974.

Question: What about the “Transformed binding isotherm” value (MRGPRA1; [Ligand] 0.000125 M) of the same compound?
Answer: Its value is 64.6366.

Question: What about the “Transformed binding isotherm” value (MRGPRA1; [Ligand] 0.00025 M) of the same compound?
Answer: The value was 80.7081.

Question: And the “Transformed binding isotherm” value (MRGPRA1; [Ligand] 0.0005 M)?
Answer: Its value is 102.789.

Question: What about the “Transformed binding isotherm” value (MRGPRA1; [Ligand] 0.001 M) of the same compound?
Answer: The value was 103.048.

Question: And the “microscale thermophoresis response (binding isotherm), mean” value (from here on “microscale thermophoresis response”) (MRGPRX4 [2]; [Ligand] 3.05e-8 M)?
Answer: Its value is 7.584.

Question: What about the “microscale thermophoresis response” value (MRGPRX4 [2]; [Ligand] 6.1e-8 M) of the same compound?
Answer: Its value is 6.444.

Question: And the “microscale thermophoresis response” value (MRGPRX4 [2]; [Ligand] 1.221e-7 M)?
Answer: Its value is 6.442.

Question: And the “microscale thermophoresis response” value (MRGPRX4 [2]; [Ligand] 2.441e-7 M)?
Answer: Its value is 4.051.

Question: What about the “microscale thermophoresis response” value (MRGPRX4 [2]; [Ligand] 4.883e-7 M) of the same compound?
Answer: Its value is -2.46.

Question: And the “microscale thermophoresis response” value (MRGPRX4 [2]; [Ligand] 9.766e-7 M)?
Answer: Its value is -5.393.

Question: And the “microscale thermophoresis response” value (MRGPRX4 [2]; [Ligand] 1.9531e-6 M)?
Answer: Its value is 5.84.

Question: And the “microscale thermophoresis response” value (MRGPRX4 [2]; [Ligand] 3.9063e-6 M)?
Answer: Its value is 1.017.

Question: And the “microscale thermophoresis response” value (MRGPRX4 [2]; [Ligand] 7.8125e-6 M)?
Answer: The value was 9.66.

Question: And the “microscale thermophoresis response” value (MRGPRX4 [2]; [Ligand] 1.5625e-5 M)?
Answer: The value was 19.4349.

Question: And the “microscale thermophoresis response” value (MRGPRX4 [2]; [Ligand] 3.125e-5 M)?
Answer: Its value is 35.6519.

Question: And the “microscale thermophoresis response” value (MRGPRX4 [2]; [Ligand] 6.25e-5 M)?
Answer: The value was 68.0309.

Question: And the “microscale thermophoresis response” value (MRGPRX4 [2]; [Ligand] 0.000125 M)?
Answer: The value was 97.8035.

Question: And the “microscale thermophoresis response” value (MRGPRX4 [2]; [Ligand] 0.00025 M)?
Answer: Its value is 117.52.

Question: What about the “microscale thermophoresis response” value (MRGPRX4 [2]; [Ligand] 0.0005 M) of the same compound?
Answer: Its value is 123.698.

Question: And the “microscale thermophoresis response” value (MRGPRX4 [2]; [Ligand] 0.001 M)?
Answer: Its value is 119.096.
